test system: Puccinia recondita tritici = Puccinia triticina (PUCCRT); test: Fungicidal activity vs. leaf rust on wheat plants; assay type: in vivo; settings: wheat (Yuma) sprayed at 50 ppm, inoculated the following day, rated 7-9 days later, read-out: Puccinia Rating (% Disease Control @ 50 ppm)
Excerpt: D. Evaluation of Fungicidal Activity vs. Leaf Rust (Causal Agent Puccinia Recondita Tritici=Puccinia Triticina; Bayer Code PUCCRT)
Each pot contained 3-8 seedlings. These plants were sprayed until wet with the formulated test compounds. The compounds were formulated at 50 ppm in 10 vol. % acetone plus 90 vol. % Triton X water (deionized water 99.99 wt %+0.01 wt % Triton X100), giving a “formulated test compound.” Formulated test compounds were applied to plants using a turn table sprayer fitted with two opposing air atomization nozzles which delivered approximately 1500 L/ha of spray volume. On the following day, the leaves were inoculated with an aqueous spore suspension of Puccinia recondita tritici and the plants were kept in high humidity overnight to permit spores to germinate and infect the leaf. The plants were then transferred to a greenhouse until disease developed on untreated control plants. Disease severity was evaluated 7-9 days later, depending on the speed of disease development.
In each case of Table 3, the Puccinia rating scale is as follows: […]

Compound	pest or weed control at 50 ppm [%]
N#Cc1ccc(COc2ccc(C(F)(F)C(O)(Cn3cnnn3)c3ccc(F)cc3F)nc2)nc1 (stereo not drawn) [Compound 50, 6-(((6-(2-(2,4-Difluorophenyl)-1,1-difluoro-2-hydroxy-3-(1H-tetrazol-1-yl)propyl)pyridin-3-yl)oxy)methyl)nicotinonitrile]	80 to 100
N#Cc1cccc(COc2ccc(C(F)(F)C(O)(Cn3cnnn3)c3ccc(F)cc3F)nc2)c1 (stereo not drawn) [Compound 52, 3-(((6-(2-(2,4-Difluorophenyl)-1,1-difluoro-2-hydroxy-3-(1H-tetrazol-1-yl)propyl)pyridin-3-yl)oxy)methyl)benzonitrile]	80 to 100
OC(Cn1cnnn1)(c1ccc(Cl)cc1F)C(F)(F)c1ccc(OCC2CC2)cn1 (stereo not drawn) [Compound 54, 2-(4-Chloro-2-fluorophenyl)-1-(5-(cyclopropylmethoxy)pyridin-2-yl)-1,1-difluoro-3-(1H-tetrazol-1-yl)propan-2-ol]	80 to 100
N#Cc1ccc(COc2ccc(C(F)(F)C(O)(Cn3cnnn3)c3ccc(Cl)cc3F)nc2)cc1 (stereo not drawn) [Compound 55, 4-(((6-(2-(4-Chloro-2-fluorophenyl)-1,1-difluoro-2-hydroxy-3-(1H-tetrazol-1-yl)propyl)pyridin-3-yl)oxy)methyl)benzonitrile]	80 to 100
N#Cc1ccc(COc2ccc(C(F)(F)C(O)(Cn3cnnn3)c3ccc(F)cc3F)nc2)c(F)c1 (stereo not drawn) [Compound 57, 4-(((6-(2-(2,4-Difluorophenyl)-1,1-difluoro-2-hydroxy-3-(1H-tetrazol-1-yl)propyl)pyridin-3-yl)oxy)methyl)-3-fluorobenzonitrile]	80 to 100
N#Cc1ccc(F)c(COc2ccc(C(F)(F)C(O)(Cn3cnnn3)c3ccc(F)cc3F)nc2)c1 (stereo not drawn) [Compound 59, 3-(((6-(2-(2,4-Difluorophenyl)-1,1-difluoro-2-hydroxy-3-(1H-tetrazol-1-yl)propyl)pyridin-3-yl)oxy)methyl)-4-fluorobenzonitrile]	80 to 100
N#Cc1ccc(COc2ccc(C(F)(F)C(O)(Cn3cnnn3)c3ccc(Cl)cc3F)nc2)nc1 (stereo not drawn) [Compound 61, 6-(((6-(2-(4-Chloro-2-fluorophenyl)-1,1-difluoro-2-hydroxy-3-(1H-tetrazol-1-yl)propyl)pyridin-3-yl)oxy)methyl)nicotinonitrile]	80 to 100
N#Cc1cc(COc2ccc(C(F)(F)C(O)(Cn3cnnn3)c3ccc(F)cc3F)nc2)ccc1F (stereo not drawn) [Compound 65, 5-(((6-(2-(2,4-Difluorophenyl)-1,1-difluoro-2-hydroxy-3-(1H-tetrazol-1-yl)propyl)pyridin-3-yl)oxy)methyl)-2-fluorobenzonitrile]	80 to 100
N#Cc1cccc(COc2ccc(C(F)(F)C(O)(Cn3cnnn3)c3ccc(F)cc3F)nc2)c1F (stereo not drawn) [Compound 67, 3-(((6-(2-(2,4-Difluorophenyl)-1,1-difluoro-2-hydroxy-3-(1H-tetrazol-1-yl)propyl)pyridin-3-yl)oxy)methyl)-2-fluorobenzonitrile]	80 to 100
CC(C)COc1ccc(C(F)(F)C(O)(Cn2cnnn2)c2ccc(Cl)cc2F)nc1 (stereo not drawn) [Compound 69, 2-(4-Chloro-2-fluorophenyl)-1,1-difluoro-1-(5-isobutoxypyridin-2-yl)-3-(1H-tetrazol-1-yl)propan-2-ol]	80 to 100
OC(Cn1cnnn1)(c1ccc(Cl)cc1F)C(F)(F)c1ccc(OCC(F)(F)F)cn1 (stereo not drawn) [Compound 71, 2-(4-Chloro-2-fluorophenyl)-1,1-difluoro-3-(1H-tetrazol-1-yl)-1-(5-(2,2,2-trifluoroethoxy)pyridin-2-yl)propan-2-ol]	80 to 100
N#Cc1ccc(COc2ccc(C(F)(F)C(O)(Cn3cnnn3)c3ccc(F)cc3F)nc2)s1 (stereo not drawn) [Compound 73, 5-(((6-(2-(2,4-Difluorophenyl)-1,1-difluoro-2-hydroxy-3-(1H-tetrazol-1-yl)propyl)pyridin-3-yl)oxy)methyl)thiophene-2-carbonitrile]	80 to 100

Reference: US8796001B2, “Metalloenzyme inhibitor compounds” (Viamet Pharmaceuticals, Inc., priority 2011, dated 2014)
